Experiments:
Assay type in all cases: biochemical
human cathepsin K (CatK) = human cathepsin K (CatK) (Homo sapiens (Human), UniProt P43235); experiment: CatK functional enzyme assay; conditions: recombinant human CatK, substrate Z-FR-AMC 40 μM, pH 5.5; Ki by Cheng Prusoff equation; read-out: hCatK, Ki
Outline: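 Recombinant human enzymes in 50 mM NaOAc, 10 mM EDTA, 1 mM DTT, 0.01% Triton X-100, pH 5.5, 10 min at RT. CatK: 0.00175 mU/well with 40 μM Z-FR-AMC; CatL: 0.000874 mU/well with 40 μM Z-VVR-AMC. AMC fluorescence read; IC50 converted to Ki via Cheng–Prusoff.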

human cathepsin S (CatS) = human cathepsin S (CatS) (Homo sapiens (Human), UniProt P25774); experiment: CatS functional enzyme assay; conditions: for Selectivity Ki(hCatS)/Ki(hCatK): ratio Ki(hCatS)/Ki(hCatK); for Ki: recombinant human CatS, substrate Z-VVR-AMC 5 μM, pH 6.5, Ki by Cheng Prusoff equation, read-out: hCatS, Ki
Outline: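 Recombinant human enzymes were incubated 10 min at RT with AMC substrate: CatS 0.0007 mU/well with Z-VVR-AMC 5 µM; CatK 0.00175 mU/well with Z-FR-AMC 40 µM; CatL 0.000874 mU/well with Z-VVR-AMC 40 µM. Fluorescence gave IC50, converted to Ki by Cheng-Prusoff.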

human cathepsin L (CatL) = human cathepsin L (CatL) (Homo sapiens (Human), UniProt P07711); experiment: CatL functional enzyme assay; conditions: read-out: hCatL, inhibition [%] at 31.6 μM
human cathepsin L (CatL), sequence (P07711 114-333): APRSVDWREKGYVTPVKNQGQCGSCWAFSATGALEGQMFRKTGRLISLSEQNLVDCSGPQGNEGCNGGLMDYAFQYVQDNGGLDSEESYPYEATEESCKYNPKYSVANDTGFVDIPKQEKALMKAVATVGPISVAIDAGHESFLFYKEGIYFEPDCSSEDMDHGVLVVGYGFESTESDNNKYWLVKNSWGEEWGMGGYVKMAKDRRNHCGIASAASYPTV

human cathepsin S (CatS), sequence (P25774 115-331): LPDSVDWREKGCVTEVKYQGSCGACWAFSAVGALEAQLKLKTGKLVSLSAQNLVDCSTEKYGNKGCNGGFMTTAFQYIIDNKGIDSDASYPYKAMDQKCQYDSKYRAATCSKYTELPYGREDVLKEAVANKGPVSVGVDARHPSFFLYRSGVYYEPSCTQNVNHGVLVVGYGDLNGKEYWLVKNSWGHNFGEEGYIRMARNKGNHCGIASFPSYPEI
human cathepsin K (CatK), sequence (P43235 115-329): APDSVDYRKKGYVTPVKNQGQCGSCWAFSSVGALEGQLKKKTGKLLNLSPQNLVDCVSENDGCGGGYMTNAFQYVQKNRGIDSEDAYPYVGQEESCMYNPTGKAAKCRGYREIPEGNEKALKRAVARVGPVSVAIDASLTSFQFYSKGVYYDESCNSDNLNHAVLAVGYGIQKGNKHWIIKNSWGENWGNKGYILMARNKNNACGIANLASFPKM

Structure (SMILES)	Ki (human cathepsin K (CatK))	Selectivity Ki(hCatS)/Ki(hCatK) (human cathepsin S (CatS))	Ki (human cathepsin S (CatS))	inhibition at 31.6 µM (human cathepsin L (CatL))
O=C(N[C@H](C(=O)N1C[C@H](Cl)[C@H]2OCC(=O)[C@H]21)C1CCCCC1)c1sc(-c2cccnc2)cc1F [Example 65, N-((S)-2-((3aS,6S,6aS)-6-chloro-3-oxotetrahydro-2H-furo[3,2-b]pyrrol-4(5H)-yl)-1-cyclohexyl-2-oxoethyl)-3-fluoro-5-(pyridin-3-yl)thiophene-2-carboxamide]	551 nM	1.2	646 nM	5%
O=C(N[C@H](C(=O)N1C[C@H](Cl)[C@H]2OCC(=O)[C@H]21)C1CCCCC1)c1ncc(-c2cnc(C(F)(F)F)nc2)s1 [Example 67, N-((S)-2-((3aS,6S,6aS)-6-chloro-3-oxotetrahydro-2H-furo[3,2-b]pyrrol-4(5H)-yl)-1-cyclohexyl-2-oxoethyl)-5-(2-(trifluoromethyl)pyrimidin-5-yl)thiazole-2-carboxamide]	42 nM	4.7	198 nM	8%
O=C(N[C@H](C(=O)N1C[C@H](Cl)[C@H]2OCC(=O)[C@H]21)C1CCCCC1)c1ncc(-c2ccc(C(F)(F)F)nc2)s1 [Example 68, N-((S)-2-((3aS,6S,6aS)-6-chloro-3-oxotetrahydro-2H-furo[3,2-b]pyrrol-4(5H)-yl)-1-cyclohexyl-2-oxoethyl)-5-(6-(trifluoromethyl)pyridin-3-yl)thiazole-2-carboxamide]	65 nM	5.9	383 nM	5%
O=C(N[C@H](C(=O)N1C[C@H](Cl)[C@H]2OCC(=O)[C@H]21)C1CCCCC1)c1ccc(-c2ccc[n+]([O-])c2)s1 [Example 70, 3-(5-(((S)-2-((3aS,6S,6aS)-6-chloro-3-oxotetrahydro-2H-furo[3,2-b]pyrrol-4(5H)-yl)-1-cyclohexyl-2-oxoethyl)carbamoyl)thiophen-2-yl)pyridine 1-oxide]	19 nM	1.5	27 nM	41%
COc1cnnc(-c2ccc(C(=O)N[C@H](C(=O)N3C[C@H](Cl)[C@H]4OCC(=O)[C@H]43)C3CCCCC3)s2)c1 [Example 72, N-((S)-2-((3aS,6S,6aS)-6-chloro-3-oxotetrahydro-2H-furo[3,2-b]pyrrol-4(5H)-yl)-1-cyclohexyl-2-oxoethyl)-5-(5-methoxypyridazin-3-yl)thiophene-2-carboxamide]	39 nM	1.4	55 nM	30%
O=C(N[C@H](C(=O)N1C[C@H](Cl)[C@H]2OCC(=O)[C@H]21)C1CCCCC1)c1ccc(-c2cc(C3CC3)cnn2)s1 [Example 74, N-((S)-2-((3aS,6S,6aS)-6-chloro-3-oxotetrahydro-2H-furo[3,2-b]pyrrol-4(5H)-yl)-1-cyclohexyl-2-oxoethyl)-5-(5-cyclopropylpyridazin-3-yl)thiophene-2-carboxamide]	22 nM	0.3	7 nM	19%
Cc1cc(-c2cnc(C(=O)N[C@H](C(=O)N3C[C@H](Cl)[C@H]4OCC(=O)[C@H]43)C3CCCCC3)s2)cnn1 [Example 75, N-((S)-2-((3aS,6S,6aS)-6-chloro-3-oxotetrahydro-2H-furo[3,2-b]pyrrol-4(5H)-yl)-1-cyclohexyl-2-oxoethyl)-5-(6-methylpyridazin-4-yl)thiazole-2-carboxamide]	18 nM	1.2	21 nM	28%
C[S+]([O-])c1cnnc(-c2ccc(C(=O)N[C@H](C(=O)N3C[C@H](Cl)[C@H]4OCC(=O)[C@H]43)C3CCCCC3)s2)c1 (stereo partly drawn) [Example 76, N-((S)-2-((3aS,6S,6aS)-6-chloro-3-oxotetrahydro-2H-furo[3,2-b]pyrrol-4(5H)-yl)-1-cyclohexyl-2-oxoethyl)-5-(5-(methylsulfinyl)pyridazin-3-yl)thiophene-2-carboxamide]	30 nM	1.0	29 nM	19%
Cc1cc(-c2cnc(C(=O)N[C@H](C(=O)N3C[C@H](Cl)[C@H]4OCC(=O)[C@H]43)C3CCCCC3)s2)cn[n+]1[O-] [Example 77, 4-(2-(((S)-2-((3aS,6S,6aS)-6-chloro-3-oxotetrahydro-2H-furo[3,2-b]pyrrol-4(5H)-yl)-1-cyclohexyl-2-oxoethyl)carbamoyl)thiazol-5-yl)-6-methylpyridazine 1-oxide]	20 nM	1.3	25 nM	12%
CS(=O)(=O)c1cnnc(-c2ccc(C(=O)N[C@H](C(=O)N3C[C@H](Cl)[C@H]4OCC(=O)[C@H]43)C3CCCCC3)s2)c1 [Example 78, N-((S)-2-((3aS,6S,6aS)-6-chloro-3-oxotetrahydro-2H-furo[3,2-b]pyrrol-4(5H)-yl)-1-cyclohexyl-2-oxoethyl)-5-(5-(methylsulfonyl)pyridazin-3-yl)thiophene-2-carboxamide]	20 nM	0.8	16 nM	21%
O=C(N[C@H](C(=O)N1C[C@H](Cl)[C@H]2OCC(=O)[C@H]21)C1CCCCC1)c1ccc(-c2ccc[n+]([O-])n2)s1 [Example 79, 3-(5-(((S)-2-((3aS,6S,6aS)-6-chloro-3-oxotetrahydro-2H-furo[3,2-b]pyrrol-4(5H)-yl)-1-cyclohexyl-2-oxoethyl)carbamoyl)thiophen-2-yl)pyridazine 1-oxide]	21 nM	2.7	56 nM	25%
O=C(N[C@H](C(=O)N1C[C@H](Cl)[C@H]2OCC(=O)[C@H]21)C1CCCCC1)c1ccc(-c2cnnc(O)c2)s1 [Example 80, N-((S)-2-((3aS,6S,6aS)-6-chloro-3-oxotetrahydro-2H-furo[3,2-b]pyrrol-4(5H)-yl)-1-cyclohexyl-2-oxoethyl)-5-(6-hydroxypyridazin-4-yl)thiophene-2-carboxamide]	16 nM	2.6	42 nM	30%

Molecules with a lower Ki (human cathepsin K (CatK)), results first:

Ki (human cathepsin K (CatK))	Selectivity Ki(hCatS)/Ki(hCatK) (human cathepsin S (CatS))	Ki (human cathepsin S (CatS))	inhibition at 31.6 µM (human cathepsin L (CatL))	Structure (SMILES)
7 nM	5.0	34 nM	3%	O=C(N[C@H](C(=O)N1C[C@H](Cl)[C@H]2OCC(=O)[C@H]21)C1CCCCC1)c1ccc(-c2ccnc(C3CC3)c2)s1 [Example 66, N-((S)-2-((3aS,6S,6aS)-6-chloro-3-oxotetrahydro-2H-furo[3,2-b]pyrrol-4(5H)-yl)-1-cyclohexyl-2-oxoethyl)-5-(2-cyclopropylpyridin-4-yl)thiophene-2-carboxamide]
8 nM	1.1	9 nM	24%	Cc1cc(-c2ccc(C(=O)N[C@H](C(=O)N3C[C@H](Cl)[C@H]4OCC(=O)[C@H]43)C3CCCCC3)s2)cnn1 [Example 69, N-((S)-2-((3aS,6S,6aS)-6-chloro-3-oxotetrahydro-2H-furo[3,2-b]pyrrol-4(5H)-yl)-1-cyclohexyl-2-oxoethyl)-5-(6-methylpyridazin-4-yl)thiophene-2-carboxamide]
8 nM	3.0	23 nM	32%	COc1cc(-c2ccc(C(=O)N[C@H](C(=O)N3C[C@H](Cl)[C@H]4OCC(=O)[C@H]43)C3CCCCC3)s2)cnn1 [Example 71, N-((S)-2-((3aS,6S,6aS)-6-chloro-3-oxotetrahydro-2H-furo[3,2-b]pyrrol-4(5H)-yl)-1-cyclohexyl-2-oxoethyl)-5-(6-methoxypyridazin-4-yl)thiophene-2-carboxamide]
15 nM	0.9	13 nM	26%	CCc1cnnc(-c2ccc(C(=O)N[C@H](C(=O)N3C[C@H](Cl)[C@H]4OCC(=O)[C@H]43)C3CCCCC3)s2)c1 [Example 73, N-((S)-2-((3aS,6S,6aS)-6-chloro-3-oxotetrahydro-2H-furo[3,2-b]pyrrol-4(5H)-yl)-1-cyclohexyl-2-oxoethyl)-5-(5-ethylpyridazin-3-yl)thiophene-2-carboxamide]
11 nM	12.1	133 nM	18%	Cc1ncc(-c2ccc(C(=O)N[C@H](C(=O)N3C[C@H](Cl)[C@H]4OCC(=O)[C@H]43)C3CCCCC3)s2)c(C)n1 [Example 81, N-((S)-2-((3aS,6S,6aS)-6-chloro-3-oxotetrahydro-2H-furo[3,2-b]pyrrol-4(5H)-yl)-1-cyclohexyl-2-oxoethyl)-5-(2,4-dimethylpyrimidin-5-yl)thiophene-2-carboxamide]
9 nM	14.3	129 nM	24%	O=C(N[C@H](C(=O)N1C[C@H](Cl)[C@H]2OCC(=O)[C@H]21)C1CCCCC1)c1ncc(-c2ccnc(C3CC3)c2)s1 [Example 82, N-((S)-2-((3aS,6S,6aS)-6-chloro-3-oxotetrahydro-2H-furo[3,2-b]pyrrol-4(5H)-yl)-1-cyclohexyl-2-oxoethyl)-5-(2-cyclopropylpyridin-4-yl)thiazole-2-carboxamide]
